Measurements as given in paper PMC4574779, “Selective Production of 9R-Hydroxy-10E,12Z,15Z-Octadecatrienoic Acid from α-Linolenic Acid in Perilla Seed Oil Hydrolyzate by a Lipoxygenase from Nostoc Sp. SAG 25.82” (PLoS ONE, 2015).

Target: T1, 9R-LOX (9R-lipoxygenase) from Nostoc sp. SAG 25.82 (Nostoc sp. PCC 7120 = FACHB-418, UniProt Q8YK97)
T1 construct: gene all8020; 9R-lox/pET-15b, His-tagged, E. coli ER2566, His-Trap purified
T1 sequence (Q8YK97 318-773 limits assumed): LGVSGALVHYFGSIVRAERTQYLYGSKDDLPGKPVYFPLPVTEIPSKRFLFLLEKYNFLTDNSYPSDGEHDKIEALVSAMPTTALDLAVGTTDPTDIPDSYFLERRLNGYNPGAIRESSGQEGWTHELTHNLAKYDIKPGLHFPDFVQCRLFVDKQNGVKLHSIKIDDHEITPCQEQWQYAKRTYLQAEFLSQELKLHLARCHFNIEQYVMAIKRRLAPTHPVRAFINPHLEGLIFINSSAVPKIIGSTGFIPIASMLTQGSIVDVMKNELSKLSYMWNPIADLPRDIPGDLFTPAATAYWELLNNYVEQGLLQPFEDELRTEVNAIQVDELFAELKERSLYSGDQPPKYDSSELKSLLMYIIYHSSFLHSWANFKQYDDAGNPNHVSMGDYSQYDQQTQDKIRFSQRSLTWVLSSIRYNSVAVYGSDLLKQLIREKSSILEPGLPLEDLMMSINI
Assay: oxygen uptake (Clark-type electrode), nonlinear Michaelis-Menten fit
Format: biochemical
Details: O2 co-substrate; 50 mM Tris-HCl pH 8.5; 25°C in methods (results text: 15°C, 5% acetone, 0.2% Tween 80)
From the text: oxygen uptake (Clark-type electrode), nonlinear Michaelis-Menten fit on 9R-LOX (9R-lipoxygenase) from Nostoc sp. SAG 25.82

| Km | Structure (SMILES) |
| --- | --- |
| 54 ± 1.3 µM | CC/C=C\C/C=C\C/C=C\CCCCCCCC(=O)O [ALA, α-Linolenic acid] |
| 54 ± 0.8 µM | CCCCC/C=C\C/C=C\C/C=C\CCCCC(=O)O [GLA, γ-Linolenic acid] |
| 404 ± 30 µM | CCCCC/C=C\C/C=C\CCCCCCCC(=O)O [LA, Linoleic acid] |
